The target in the experiment is T1, SIRT1 (Homo sapiens, UniProt Q96EB6).
T1 sequence (Q96EB6 1-747): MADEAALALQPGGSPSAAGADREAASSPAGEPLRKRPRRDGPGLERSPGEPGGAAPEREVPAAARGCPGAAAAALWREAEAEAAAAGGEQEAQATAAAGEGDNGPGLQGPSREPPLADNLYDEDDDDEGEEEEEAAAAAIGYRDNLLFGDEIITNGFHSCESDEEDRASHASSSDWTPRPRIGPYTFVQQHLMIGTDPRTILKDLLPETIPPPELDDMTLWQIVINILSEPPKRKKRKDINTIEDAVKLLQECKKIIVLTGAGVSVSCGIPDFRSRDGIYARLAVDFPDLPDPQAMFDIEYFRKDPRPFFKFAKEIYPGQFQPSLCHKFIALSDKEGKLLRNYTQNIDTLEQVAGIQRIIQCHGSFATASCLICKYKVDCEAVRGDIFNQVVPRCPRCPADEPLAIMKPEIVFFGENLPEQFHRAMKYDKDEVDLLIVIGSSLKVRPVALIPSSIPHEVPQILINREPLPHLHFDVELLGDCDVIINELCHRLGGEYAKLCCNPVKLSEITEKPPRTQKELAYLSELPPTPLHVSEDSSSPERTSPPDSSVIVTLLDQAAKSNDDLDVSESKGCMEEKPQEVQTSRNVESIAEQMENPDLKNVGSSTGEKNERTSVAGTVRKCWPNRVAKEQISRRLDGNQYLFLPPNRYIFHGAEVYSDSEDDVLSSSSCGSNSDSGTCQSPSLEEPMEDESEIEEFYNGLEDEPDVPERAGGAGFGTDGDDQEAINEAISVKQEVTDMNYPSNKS
Nature of the experiment: mass spectrometry based SIRT1 deacetylation assay (activation). The class given is biochemical. The following applies: 0.5 μM peptide substrate, 120 μM βNAD+, 10 nM SIRT1, 25 min at 25° C.; for Emax: read-out: % FOLD ACT. (percent maximum fold activation of SIRT1); for EC1.5 (concentration of test compound that results in 150% activation of SIRT1): NA = not active in the assay. The text has this: A mass spectrometry based assay was used to identify modulators of SIRT1 activity. The mass spectrometry based assay utilizes a peptide having 20 amino acid residues as follows: Ac-EE-K(biotin)-GQSTSSHSK(Ac)NleSTEG-K(5TMR)-EE-NH2 (SEQ ID NO: 1) wherein K(Ac) is an acetylated lysine residue and Nle is a norleucine. The peptide is labeled with the fluorophore 5TMR (excitation 540 nm/emission 580 nm) at the C-terminus. The sequence of the peptide substrate is based on p53 with several modifications. In addition, the methionine residue naturally present in the sequence was replaced with the norleucine because the methionine may be susceptible to oxidation during synthesis and purification.
Test compounds may be added to the reaction as described above. […] After the 25 minute incubation with SIRT1, 10 μL of 10% formic acid is added to stop the reaction. Reactions are sealed and frozen for later mass spec analysis. Determination of the mass of the substrate peptide allows for precise determination of the degree of acetylation (i.e. starting material) as compared to deacetylated peptide (product).
A control for inhibition of sirtuin activity is conducted by adding 1 μL of 500 mM nicotinamide as a negative control at the start of the reaction (e.g., permits determination of maximum sirtuin inhibition). A control for activation of sirtuin activity is conducted using 10 nM of sirtuin protein, with 1 μL of DMSO in place of compound, to determine the amount of deacetylation of the substrate at a given timepoint within the linear range of the assay. This timepoint is the same as that used for test compounds and, within the linear range, the endpoint represents a change in velocity.
For the above assay, SIRT1 protein was expressed and purified as follows. […] The protein was expressed by induction with 1 mM IPTG as an N-terminal His-tag fusion protein at 18° C. overnight and harvested at 30,000×g. Cells were lysed with lysozyme in lysis buffer (50 mM Tris-HCl, 2 mM Tris[2-carboxyethyl]phosphine (TCEP), 10 μM ZnCl2, 200 mM NaCl) and further treated with sonication for 10 min for complete lysis. The protein was purified over a Ni-NTA column (Amersham) and fractions containing pure protein were pooled, concentrated and run over a sizing column (Sephadex S200 26/60 global). The peak containing soluble protein was collected and run on an Ion-exchange column (MonoQ). Gradient elution (200 mM-500 mM NaCl) yielded pure protein. This protein was concentrated and dialyzed against dialysis buffer (20 mM Tris-HCl, 2 mM TCEP) overnight. The protein was aliquoted and frozen at −80° C. until further use.
Sirtuin modulating compounds that activated SIRT1 were identified using the assay described above and are shown below in Table 3. The EC1.5 values represent the concentration of test compounds that result in 150% activation of SIRT1. NT means that the compound was not tested using the indicated assay. NA means that the compound was not active in the indicated assay.

Here are results for 35 compounds from patent US8268862B2, “Sirtuin modulating compounds” (Sirtris Pharmaceuticals, Inc., priority 2007, dated 2012).

A value given as a limit tells only on which side of the number the result lay.

Consider `O=C(Nc1ccccc1-c1nc2ccc(CN3CCNCC3)nc2s1)c1cnc2ccccc2n1` [Compound 66], for which the Emax stood at 336%. As for `O=C(Nc1ccccc1-c1nc2cc(CN3CCOCC3)cnc2s1)c1ccc2ccccc2n1` [Compound 68], the “EC1.5 (concentration of test compound that results in 150% activation of SIRT1)” value is listed as 593 NM and the Emax was determined as 295%. The matching figures for `O=C(Nc1ccccc1-c1nc2ccc(CN3CCNCC3)nc2s1)c1ccc2ccccc2n1` [Compound 69]: 687 NM and > 500%.

With `O=C(Nc1ccccc1-c1nc2cc(CN3CCNCC3)cnc2s1)c1ccc2ncsc2c1` [Compound 70], the Emax came out at 298%. `O=C(Nc1ccccc1-c1nc2cc(CN3CCNCC3)cnc2s1)c1ccn(-c2ccccc2)n1` [Compound 71]: the “EC1.5 (concentration of test compound that results in 150% activation of SIRT1)” value turned out to be 1460 NM and the Emax stood at 304%.

For the compound `O=C(Nc1ccccc1-c1nc2cc(CN3CCOCC3)cnc2s1)c1ccnc(-c2ccccc2)n1` [Compound 72], the Emax worked out at 100%. Turning to `O=C(Nc1ccccc1-c1nc2cc(CN3CCNCC3)cnc2s1)c1ccnc(-c2ccccc2)n1` [Compound 73], the “EC1.5 (concentration of test compound that results in 150% activation of SIRT1)” value turned out to be 2970 NM and the Emax turned out to be 183%. For `COc1ccc(-c2ccc(C(=O)Nc3ccccc3-c3nc4cc(CN5CCOCC5)cnc4s3)o2)cc1` [Compound 74] the same measures were 421 NM and 236%. With `O=C(Nc1ccccc1-c1nc2cc(CN3CCNCC3)cnc2s1)c1cccc(-c2nnn[nH]2)c1` [Compound 76], the “EC1.5 (concentration of test compound that results in 150% activation of SIRT1)” value is recorded as 2790 NM and the Emax was 285%. Regarding `O=C(Nc1ccccc1-c1nc2cc(CN3CCOCC3)cnc2s1)c1cccc(-c2nnn[nH]2)c1` [Compound 77], the “EC1.5 (concentration of test compound that results in 150% activation of SIRT1)” value came out at 3920 NM and the Emax is 204%. `Cc1nc(-c2cccnc2)sc1C(=O)Nc1ccccc1-c1nc2cc(CN3CCC(N)CC3)cnc2s1` [Compound 78]: the “EC1.5 (concentration of test compound that results in 150% activation of SIRT1)” value worked out at 565 NM and the Emax came out at 297%. For the compound `Cc1nc(-c2cccnc2)sc1C(=O)Nc1ccccc1-c1nc2cc(CN3CC[C@@H](N)C3)cnc2s1` [Compound 79], the “EC1.5 (concentration of test compound that results in 150% activation of SIRT1)” value is listed as 1220 NM and the Emax is 240%. Regarding `Cc1nc(-c2cccnc2)sc1C(=O)Nc1ccccc1-c1nc2cc(CN3CCOCC3)cnc2s1` [Compound 80], the Emax turned out to be 100%. As to `Cc1nc(-c2cccnc2)sc1C(=O)Nc1ccccc1-c1nc2cc(CN3C[C@@H](C)N[C@@H](C)C3)cnc2s1` [Compound 81], the Emax came to 131%. For the compound `Cc1nc(-c2cccnc2)sc1C(=O)Nc1ccccc1-c1nc2cc(CN[C@H]3CCNC3)cnc2s1` [Compound 82], the “EC1.5 (concentration of test compound that results in 150% activation of SIRT1)” value was found to be 878 NM and the Emax was 224%. In the case of `Cc1nc(-c2cccnc2)sc1C(=O)Nc1ccccc1-c1nc2cc(CNC(C)C)cnc2s1` [Compound 83], the Emax amounted to 100%. On to `O=C(Nc1ccccc1-c1nc2cc(CN3CC[C@@H](F)C3)cnc2s1)c1cccc(-n2cnnn2)c1` [Compound 84], for which the “EC1.5 (concentration of test compound that results in 150% activation of SIRT1)” value worked out at 4270 NM and the Emax was 166%.

As for `COCCN1CCN(Cc2cnc3sc(-c4ccccc4NC(=O)c4sc(-c5cccnc5)nc4C)nc3c2)CC1` [Compound 85], the “EC1.5 (concentration of test compound that results in 150% activation of SIRT1)” value is given as 16700 NM and the Emax is 182%. For `COCCN1CCN(Cc2cnc3sc(-c4ccccc4NC(=O)c4cc(-c5ccccc5)ccn4)nc3c2)CC1` [Compound 86], the Emax worked out at 137%. For the compound `COCCN1CCN(Cc2cnc3sc(-c4ccccc4NC(=O)c4cc(-c5ccccc5)ncn4)nc3c2)CC1` [Compound 87], the “EC1.5 (concentration of test compound that results in 150% activation of SIRT1)” value is 955 NM and the Emax is 166%. For `COCCN1CCN(Cc2cnc3sc(-c4ccccc4NC(=O)c4cc(-c5ccccc5)cn4C)nc3c2)CC1` [Compound 88], the “EC1.5 (concentration of test compound that results in 150% activation of SIRT1)” value was 14 NM and the Emax amounted to 272%.

For `Cc1c(C(=O)Nc2ccccc2-c2nc3cc(CN4CCNCC4)cnc3s2)oc2ccccc12` [Compound 89], the “EC1.5 (concentration of test compound that results in 150% activation of SIRT1)” value is recorded as 235 NM and the Emax worked out at 239%.

`CN1CCN(Cc2cnc3sc(-c4ccccc4NC(=O)c4ccc5ccccc5n4)nc3c2)CC1` [Compound 90]: the “EC1.5 (concentration of test compound that results in 150% activation of SIRT1)” value came out at 190 NM and the Emax came out at 221%. As for `O=C(Nc1ccccc1-c1nc2cc(CN3CCNCC3)cnc2s1)c1nc2ccccc2s1` [Compound 91], the “EC1.5 (concentration of test compound that results in 150% activation of SIRT1)” value was determined as 4410 NM and the Emax was 333%. As to `CN(C)Cc1cnc2sc(-c3ccccc3NC(=O)c3cnc4ccccc4n3)nc2c1` [Compound 92], the “EC1.5 (concentration of test compound that results in 150% activation of SIRT1)” value was 2810 NM and the Emax was 163%.

Consider `O=C(Nc1ccccc1-c1nc2cc(CN3CCOCC3)cnc2s1)c1nc2ccccc2s1` [Compound 93], for which the “EC1.5 (concentration of test compound that results in 150% activation of SIRT1)” value is 510 NM and the Emax came to 236%. The matching figures for `O=C(Nc1ccccc1-c1nc2cc(Cn3ccnc3)cnc2s1)c1ccc2ccccc2n1` [Compound 94]: 150 NM and 182%. In the case of `O=C(Nc1ccccc1-c1nc2cc(CN3CCCC3)cnc2s1)c1ccc2ccccc2n1` [Compound 95], the “EC1.5 (concentration of test compound that results in 150% activation of SIRT1)” value is given as 160 NM and the Emax stood at 252%.

For the compound `O=C(Nc1ccccc1-c1nc2cc(CN3CCOCC3)cnc2s1)c1ccc2ccccc2c1` [Compound 96], the “EC1.5 (concentration of test compound that results in 150% activation of SIRT1)” value was 1060 NM and the Emax turned out to be 162%. For the compound `O=C(Nc1ccccc1-c1nc2cc(CN3CCOCC3)cnc2s1)c1cccc2ccccc12` [Compound 97], the “EC1.5 (concentration of test compound that results in 150% activation of SIRT1)” value turned out to be 3020 NM and the Emax was found to be 186%. Consider `O=C(Nc1ccccc1-c1nc2cc(CN3CCOCC3)cnc2s1)c1nc2ccccc2o1` [Compound 98], for which the Emax was found to be 139%. With `O=C(Nc1ccccc1-c1nc2cc(CN3CCC(O)CC3)cnc2s1)c1ccc2ccccc2n1` [Compound 99], the “EC1.5 (concentration of test compound that results in 150% activation of SIRT1)” value is on record as 110 NM and the Emax is 244%.

`O=C(Nc1ccccc1-c1nc2cc(CN3CC[C@H](F)C3)cnc2s1)c1ccc2ccccc2n1` [Compound 100]: the “EC1.5 (concentration of test compound that results in 150% activation of SIRT1)” value turned out to be 1440 NM and the Emax worked out at 201%. Regarding `O=C(Nc1ccccc1-c1nc2cc(CN3CCC(F)(F)C3)cnc2s1)c1ccc2ccccc2n1` [Compound 101], the Emax turned out to be 133%.

Turning to `O=C(Nc1ccccc1-c1nc2cc(CN3CCC(F)(F)CC3)cnc2s1)c1ccc2ccccc2n1` [Compound 102], the Emax was 131%.
